Experimental data published in patent US20260224563A1, “CRYSTALLINE FORMS OF 6-(3-((5-CHLORO-2-METHOXYPYRIDINE)-3-SULFONAMIDO)-2,6-DIFLUOROPHENYL)-N-METHYLIMIDAZO[1,5-A]PYRAZINE-1-CARBOXAMIDE AND METHODS FOR USING THE SAME” (HIBERCELL, INC., priority 2023, published 2026).
Where two headings read alike, the source gives them in different places.

Assay: Multicenter, open-label, Phase 1a/b study of HC-7366 in subjects with advanced solid tumors (safety, PK)
Assay type: in vivo
Settings: for ARAUC: accumulation ratio based on AUC0-τ; for ARAUC / CL/F / Ctrough / DAUC0-last / DAUC0-τ / DCmax / tlast / Cmax / half-life / AUC(0-t) / Vd/F / Tmax: human; for Cmax / half-life / AUC(0-t) / Vd/F / Tmax: plasma, po; for Vd/F: read-out: Vz/F
Excerpt: Identify the maximum tolerated dose (MTD) and/or recommended Phase 2 dose (RP2D) of HC-7366, and evaluate the safety, tolerability, and dose-limiting toxicities (DLTs) of HC-7366 using Form III of the potassium salt of the compound of formula (I) (see Example 6, also referred to within this example as HC-7366-K), in subjects with advanced solid tumors, including: • a. occurrence of DLTs • b. incidence and severity of treatment-emergent adverse events (TEAEs) and treatment related TEAEs according to National Cancer Institute Common Terminology Criteria for Adverse Events (NCI CTCAE) v 5.0 • c. incidence of TEAEs leading to premature discontinuation • d. incidence of laboratory abnormalities, based on NCI CTCAE grades of hematology, serum chemistry, and urinalysis test results • e. incidence of abnormalities observed in 12 lead ECG parameters • f. incidence of abnormalities observed in vital signs measurements
Determine plasma concentration and pharmacokinetic (PK) parameters following treatment with HC-7366 using Form III of the potassium salt of the compound of formula (I) (see Example 6, also referred to within this example as HC-7366-K).
Preliminarily assess the potential antitumor activity of HC-7366 in terms of response rate, disease stabilization, and survival outcomes by assessing: • a. Overall response rate (ORR) to HC-7366 using response evaluation criteria in solid tumors (iRECIST) • b. Duration of response (DOR) to HC-7366 using iRECIST • c. Time to treatment failure (TTF) • d. Progression free survival (PFS) using iRECIST • e. Overall survival (OS)
This is a first in human, multicenter, open label, Phase 1a and 1b dose-escalation and dose-expansion study to establish the maximum tolerated dose, recommended Phase 2 dose, and evaluate the safety and tolerability of QD oral dosing of HC 7366 in a dose escalating fashion in subjects with advanced solid tumors. Up to 40 subjects were enrolled into the Phase 1a dose-escalation part of the study. The study was conducted in the United States at approximately 7 to 10 sites.
Every effort was made to ensure approximately 50% of all subjects enrolled into Phase 1a of this study are subjects with the tumors of special interest including squamous cell carcinoma of the head and neck, colorectal cancer, non-small cell lung cancer, and transitional cell carcinoma of the bladder. […] All subjects in Phase 1b enrolled with clear cell renal cell carcinoma. The Phase 1a study followed a traditional 3+3 design. The starting dose level was 10 mg QD, escalating to 20, 40, 75, 125, and 150 mg QD as safety allows. All doses were administered in the fasting state with water at least 1 hour before food or at least 2 hours after food.
The Phase 1b dose-expansion was at a single dose level of 75 mg based on the safety, tolerability, PK/PD results from Phase 1a to obtain additional safety and preliminary efficacy information. Up to 30 subjects were enrolled in the Phase 1b portion of the study at the 75 mg dose. Replacement patients were enrolled as necessary. Subjects were dosed until unacceptable toxicity, disease progression per immune-related Response Evaluation Criteria in Solid Tumors, discontinuation of treatment for other protocol allowed reason (eg, subject refusal), any other administrative reasons, or after 2 years of treatment, whichever occurs first.
For scheduling purposes, dosing in Phase 1a and 1b occurred in 3 week cycles and computed tomography scans were conducted once every 6 weeks from Cycle 1/Day 1, with the first postbaseline scan after 6 weeks of dosing (precycle 3) until confirmed disease progression, death, start of new anticancer therapy, withdrawal of consent, or end of study, whichever occurs first.
Subjects of Phase 1a and 1b spent Cycle 1/Day 1 (C1D1) in the clinic followed by an optional overnight stay for safety monitoring and PK sampling. Subjects were hospitalized (optional) for administration of the first 2 doses: C1D1 and Cycle 1/Day 2 (C1D2). […]

[1] = multiple once daily oral 10 mg (N = 3), Cycle 1 Day 21, geometric mean
[2] = multiple once daily oral 20 mg (N = 3), Cycle 1 Day 21, geometric mean
[3] = multiple once daily oral 40 mg (N = 8), Cycle 1 Day 21, geometric mean
[4] = multiple once daily oral 75 mg (N = 7), Cycle 1 Day 21, geometric mean
[5] = multiple once daily oral 125 mg (N = 1), Cycle 1 Day 21
[6] = human subjects, multiple once daily oral administration, 10 mg
[7] = human subjects, multiple once daily oral administration, 20 mg
[8] = human subjects, multiple once daily oral administration, 40 mg
[9] = human subjects, multiple once daily oral administration, 75 mg
[10] = human subjects, multiple once daily oral administration, 125 mg (N=1)
[11] = 10 mg, multiple once daily oral 10 mg (N = 3), Cycle 1 Day 21, geometric mean
[12] = 10 mg, single oral dose 10 mg (N = 3), Cycle 1 Day 1, geometric mean
[13] = 20 mg, multiple once daily oral 20 mg (N = 3), Cycle 1 Day 21, geometric mean
[14] = 20 mg, single oral dose 20 mg (N = 3), Cycle 1 Day 1, geometric mean
[15] = 40 mg, multiple once daily oral 40 mg (N = 8), Cycle 1 Day 21, geometric mean
[16] = 40 mg, single oral dose 40 mg (N = 11), Cycle 1 Day 1, geometric mean

CNC(=O)c1ncn2cc(-c3c(F)ccc(NS(=O)(=O)c4cc(Cl)cnc4OC)c3F)ncc12 [HC-7366, 6-(3-((5-chloro-2-methoxypyridine)-3-sulfonamido)-2,6-difluorophenyl)-N-methylimidazo[1,5-a]pyrazine-1-carboxamide]
ARAUC [1]: 1.45 | ARAUC [2]: 1.46 | ARAUC [3]: 1.89 | ARAUC [4]: 1.77 | ARAUC [5]: 1.13 | dose proportionality of exposure (geometric mean Cmax and AUC) (human subjects, 10 to 75 mg, single dose and multiple once daily dosing): increased approximately proportional to increases in dose | time by which exposure appeared to be at steady-state (human subjects, continuous once daily dosing, trough concentrations): Cycle 1 Day 8 to Day 15 | dose proportionality of exposure (human subjects, increase from 75 to 125 mg, single dose administration): slightly greater than dose proportional | geometric mean accumulation ratio (ARAUC) [6]: 1.45 | geometric mean linearity ratio (LR) [6]: 1.11 | geometric mean accumulation ratio (ARAUC) [7]: 1.46 | geometric mean linearity ratio (LR) [7]: 1.14 | geometric mean accumulation ratio (ARAUC) [8]: 1.89 | geometric mean linearity ratio (LR) [8]: 1.11 | geometric mean accumulation ratio (ARAUC) [9]: 1.77 | geometric mean linearity ratio (LR) [9]: 1.22 | accumulation ratio (ARAUC) [10]: 1.13 | linearity ratio (LR) [10]: 0.759 | CL/F [1]: 0.457 L/h | Ctrough [1]: 517 ng/mL | DAUC0-last [1]: 1700 ng·h/mL/mg | DAUC0-τ [1]: 2190 ng·h/mL/mg | DCmax [1]: 198 ng/mL/mg | tlast (multiple once daily oral 10 mg (N = 3), Cycle 1 Day 21, median): 12.00 h | CL/F [2]: 0.478 L/h | Ctrough [2]: 674 ng/mL | DAUC0-last [2]: 2090 ng·h/mL/mg | DAUC0-τ [2]: 2090 ng·h/mL/mg | DCmax [2]: 185 ng/mL/mg | tlast (multiple once daily oral 20 mg (N = 3), Cycle 1 Day 21, median): 24.00 h | CL/F [3]: 0.403 L/h | Ctrough [3]: 2360 ng/mL | DAUC0-last [3]: 2380 ng·h/mL/mg | DAUC0-τ [3]: 2480 ng·h/mL/mg | DCmax [3]: 184 ng/mL/mg | tlast (multiple once daily oral 40 mg (N = 8), Cycle 1 Day 21, median): 24.00 h | CL/F [4]: 0.402 L/h | Ctrough [4]: 5010 ng/mL | DAUC0-last [4]: 2210 ng·h/mL/mg | DAUC0-τ [4]: 2490 ng·h/mL/mg | DCmax [4]: 190 ng/mL/mg | tlast (multiple once daily oral 75 mg (N = 7), Cycle 1 Day 21, median): 24.00 h | CL/F [5]: 0.311 L/h | Ctrough [5]: 3780 ng/mL | DAUC0-last [5]: 2080 ng·h/mL/mg | DAUC0-τ [5]: 3210 ng·h/mL/mg | DCmax [5]: 306 ng/mL/mg | Cmax [11]: 1980 ng/mL | half-life [11]: 9.94 h | AUC(0-t) (10 mg, multiple once daily oral 10 mg (N = 3), Cycle 1 Day 21, geometric mean, read-out: AUC0-last): 17000 ng·h/mL | Vd/F [11]: 6.55 L | Tmax (10 mg, multiple once daily oral 10 mg (N = 3), Cycle 1 Day 21, median): 2 h | Cmax [12]: 1450 ng/mL | half-life [12]: 11.3 h | AUC(0-t) (10 mg, single oral dose 10 mg (N = 3), Cycle 1 Day 1, geometric mean, read-out: AUC0-24): 15100 ng·h/mL | AUC(0-t) (10 mg, single oral dose 10 mg (N = 3), Cycle 1 Day 1, geometric mean, read-out: AUC0-last): 15100 ng·h/mL | Vd/F [12]: 8.26 L | Tmax (10 mg, single oral dose 10 mg (N = 3), Cycle 1 Day 1, median): 2 h | Cmax [13]: 3710 ng/mL | half-life [13]: 12.2 h | AUC(0-t) (20 mg, multiple once daily oral 20 mg (N = 3), Cycle 1 Day 21, geometric mean, read-out: AUC0-last): 41900 ng·h/mL | Vd/F [13]: 8.4 L | Tmax (20 mg, multiple once daily oral 20 mg (N = 3), Cycle 1 Day 21, median): 2 h | Cmax [14]: 2330 ng/mL | half-life [14]: 9.99 h | AUC(0-t) (20 mg, single oral dose 20 mg (N = 3), Cycle 1 Day 1, geometric mean, read-out: AUC0-24): 28700 ng·h/mL | AUC(0-t) (20 mg, single oral dose 20 mg (N = 3), Cycle 1 Day 1, geometric mean, read-out: AUC0-last): 28700 ng·h/mL | Vd/F [14]: 7.84 L | Tmax (20 mg, single oral dose 20 mg (N = 3), Cycle 1 Day 1, median): 4 h | Cmax [15]: 7360 ng/mL | half-life [15]: 12.4 h | AUC(0-t) (40 mg, multiple once daily oral 40 mg (N = 8), Cycle 1 Day 21, geometric mean, read-out: AUC0-last): 95000 ng·h/mL | Vd/F [15]: 8.31 L | Tmax (40 mg, multiple once daily oral 40 mg (N = 8), Cycle 1 Day 21, median): 2 h | Cmax [16]: 4520 ng/mL | half-life [16]: 14.8 h
